Measured values as given in the NIST ThermoML archive (doi:10.1021/je901020a).

Experiments:
[1] = xn = mol fraction of the nth substance listed; conditions: 101 kPa, Liquid; for speed of sound: Pulse-echo method
[2] = refractive index (Na D-line) (dimensionless); xn = mol fraction of the nth substance listed; conditions: 101 kPa, Liquid, Standard Abbe refractometry

C1CCCC1 [cyclopentane] + Cc1ccc(C)cc1
Conditions	mass density, [1] [kg/m3]	refractive index, [2]	speed of sound, [1] [m/s]
298.15 K, x1 = 0.0462	852.5	1.49015	1305
298.15 K, x1 = 0.0885	848.7	1.48707	1300
298.15 K, x1 = 0.1848	839.6	1.48001	1289
298.15 K, x1 = 0.2886	829.3	1.47236	1277
298.15 K, x1 = 0.3869	818.8	1.46445	1266
298.15 K, x1 = 0.4744	809	1.45737	1256
298.15 K, x1 = 0.5886	795.1	1.44669	1244
298.15 K, x1 = 0.6913	782.2	1.4372	1233
298.15 K, x1 = 0.7923	768.9	1.42618	1223
298.15 K, x1 = 0.8935	755	1.41575	1213
298.15 K, x1 = 0.9471	747.4	1.40916	1208
298.15 K, x1 = 1	740	1.40292	1204
313.15 K, x1 = 0.0443	839.7	1.48224	1243
313.15 K, x1 = 0.0981	834.8	1.47862	1236
313.15 K, x1 = 0.2012	824.7	1.47117	1224
313.15 K, x1 = 0.2998	814.5	1.46343	1211
313.15 K, x1 = 0.3542	808.5	1.4589	1204
313.15 K, x1 = 0.4799	794.3	1.44816	1189
313.15 K, x1 = 0.6021	779.4	1.43702	1173
313.15 K, x1 = 0.703	766.4	1.42761	1161
313.15 K, x1 = 0.8072	752.3	1.41693	1149
313.15 K, x1 = 0.909	737.9	1.4057	1138
313.15 K, x1 = 0.9601	730.6	1.39936	1133
313.15 K, x1 = 1	725	1.39456	1130

Cc1cc(C)cc(C)c1 [1,3,5-trimethylbenzene] + C1CCCCCCC1
x2 = 0
Conditions	mass density, [1] [kg/m3]	refractive index, [2]	speed of sound, [1] [m/s]
298.15 K	861.1	1.49693	1336
313.15 K	848.8	1.48923	1277

CC1CCCCC1 [methylcyclohexane] + Cc1cc(C)cc(C)c1
x1 = 1
Conditions	mass density, [1] [kg/m3]	refractive index, [2]	speed of sound, [1] [m/s]
298.15 K	765.1	1.42062	1215
313.15 K	751.9	1.41274	1150

Cc1ccccc1C [1,2-dimethylbenzene] + C1CCCCCCC1
x2 = 0
Conditions	mass density, [1] [kg/m3]	refractive index, [2]	speed of sound, [1] [m/s]
298.15 K	875.4	1.50262	1350
313.15 K	862.9	1.49466	1289

C1CCCCCCC1 [cyclooctane] + Cc1cccc(C)c1
Conditions	mass density, [1] [kg/m3]	refractive index, [2]	speed of sound, [1] [m/s]
298.15 K, x1 = 0.0545	857.4	1.49186	1322
298.15 K, x1 = 0.0993	855.5	1.48961	1324
298.15 K, x1 = 0.2059	851.1	1.4845	1328
298.15 K, x1 = 0.3074	847.4	1.4799	1333
298.15 K, x1 = 0.3933	844.4	1.47623	1338
298.15 K, x1 = 0.5031	841	1.47176	1346
298.15 K, x1 = 0.6002	838.2	1.46806	1353
298.15 K, x1 = 0.6993	835.9	1.46461	1361
298.15 K, x1 = 0.8198	833.5	1.46072	1372
298.15 K, x1 = 0.8909	832.4	1.45869	1379
298.15 K, x1 = 0.9503	831.8	1.45714	1385
298.15 K, x1 = 1	831.5	1.45598	1391
313.15 K, x1 = 0.0506	844.7	1.48423	1260
313.15 K, x1 = 0.0888	843.1	1.48242	1262
313.15 K, x1 = 0.1861	839.3	1.47779	1265
313.15 K, x1 = 0.2924	835.4	1.47308	1270
313.15 K, x1 = 0.3795	832.4	1.46944	1275
313.15 K, x1 = 0.487	829.1	1.46522	1282
313.15 K, x1 = 0.5832	826.4	1.46159	1289
313.15 K, x1 = 0.6823	824	1.45808	1296
313.15 K, x1 = 0.7874	821.9	1.45469	1305
313.15 K, x1 = 0.8879	820.3	1.45169	1315
313.15 K, x1 = 0.9389	819.7	1.45047	1320
313.15 K, x1 = 1	819.2	1.44877	1326

Cc1ccc(C)cc1 [1,4-dimethylbenzene] + C1CCCC1
x2 = 0
Conditions	mass density, [1] [kg/m3]	refractive index, [2]	speed of sound, [1] [m/s]
298.15 K	856.6	1.49312	1310
313.15 K	843.5	1.48444	1248

Cc1cccc(C)c1 [1,3-dimethylbenzene] + C1CCCC1
x2 = 0
Conditions	mass density, [1] [kg/m3]	refractive index, [2]	speed of sound, [1] [m/s]
298.15 K	859.8	1.49466	1321
313.15 K	846.9	1.48653	1259
